Legend:
[1] = test system: A549 lung cancer cell line; assay: Influence of hits on growth of A549 cancer cells (total LDH after lysis); type: cell-based; conditions: 48 h
Method: The cells were cultured for 6 h in the presence or absence of the hits, and then for 42 h. Finally, the cells were lysed with lysis buffer and the amount of LDH was measured to evaluate the total cell growth.
A colorimetric assay was used to measure lactate dehydrogenase (LDH), a cytosolic enzyme which is released during permeabilization of the plasma membrane (Promega G1780). The assay was performed using cell culture supernatants obtained from H9C2 or RNVC (rat neonatal ventricular myocyte) cells and lysis buffer (LB) was used as a positive control for total cell lysis. The LDH release was measured by absorbance reading at 490 nm (Infinite spectrofluorimeter, Tecan).
The effect of the compounds was then evaluated on primary rat neonatal ventricular cardiomyocytes (RNVCs) using the LDH test and propidium iodide staining. […] The absence of proliferative effects of the compounds was also evaluated on the A549 lung cancer cell line for 48 h (FIG. 2C).

H9C2 cells = assay: Seahorse XF Cell Mito stress test (OCR); type: cell-based, rat
Method: FIG. 8B: the H9c2 cells were treated with the compounds for 6 h, then a mitochondrial respiration stress test was carried out.
The XFe96 extracellular flow analyzer (Seahorse Biosciences, North Billerica, MA, USA) was used to measure the bioenergetic function of H9C2 cardiomyocytes. The H9C2 cells were seeded at 20 000 cells per well in XF96 cell culture microplates; all the pretreatments were carried out with serum-free cell culture medium. The Agilent Seahorse XF glycolysis stress test was performed to measure glycolytic function in the H9C2 cells; the extracellular acidification rate (ECAR) was measured sequentially by 3 injections, 10 mM glucose, 2 μM oligomycin and 50 mM 2-deoxy-D-glucose (2-DG). The Agilent Seahorse XF Cell Mito stress test measured key parameters of mitochondrial function by directly measuring the oxygen consumption rate (OCR) of the H9C2 cells. The test used the built-in injection ports on XF sensor cartridges to add respiration modulators into the cell well during the test in order to reveal key parameters of mitochondrial function. Oligomycin at 2 μM was injected first after the baseline measurements. Then 1 μM of […] (FCCP) was injected. The third injection corresponds to 0.5 μM of antimycin A, to stop mitochondrial respiration. The oxidation of the exogenous fatty acids was measured simultaneously using the XF palmitate-BSA FAO substrate kit with the mitochondrial stress test on XF cells. The substrate-limited medium is DMEM with 0.5 mM glucose, 1 mM GlutaMAX, 0.5 mM carnitine and 1% fetal calf serum. Carnitine was added freshly on the day of the change of medium. The FAO test medium contains 111 mM NaCl, 4.7 mM KCl, 1.25 mM CaCl2, 2 mM MgSO4, 1.2 mM NaH2PO4, supplemented with 2.5 mM glucose, 0.5 mM carnitine and 5 mM HEPES on the day of the test, adjusted to pH 7.4 at 37° C. The H9C2 cells were seeded at 20 000 cells per well in XF96 cell culture microplates. […]
Next, the energy metabolism was analyzed in real time using the Seahorse technology in H9C2 cells.

RNVCs = assay: Mitochondrial network and cell volume by confocal microscopy (Mitotracker, calcein-AM, IMARIS); type: cell-based, rat; conditions: 1 and 10 μM, 6 h
Method: FIG. 6. Effects on mitochondrial dynamics by fluorescence microscopy The RNVCs were treated with 1 μM hits (FIG. 6A) and 10 μM hits (FIG. 6B) for 6 h and the mitochondrial network was stained with 200 nM of Mitotracker. The mitochondrial network and individual mitochondria were then analyzed using a Leica confocal microscope and IMARIS software. Data are presented as mean±SEM with single-factor ANOVA, and multiple Sidak comparisons. *, p<0.05, **, p<0.01, ***, p<0.001 with respect to DMSO.
FIG. 11: following the treatment of the RNVCs with the compounds as indicated, the cell volume was stained with 4 μM of calcein-AM. The cell volume was then analyzed using the IMARIS software.
Confocal microscopy. On day 0, 4×10^5 neonatal cardiomyocytes were plated overnight on laminin-coated 35 mm culture dishes (10 μg/ml). On day 1, the cells were treated with various compounds at 1 or 10 μM for 6 hours. The cells were incubated with Mitotracker Red 580 at 200 nM for 20 minutes at 37° C., then 4 μM of calcein (Calcein AM, Life Technologies, St Aubin, France) for 10 minutes at 37° C. The images were acquired with a Leica confocal microscope (SP5) (Mannheim, Germany). The mitochondrial network and the 3D model of cell volume were reconstructed using the IMARIS software (Bitplane Company, Zurich, Switzerland); therefore the cell volume, mitochondrial number and volume were analyzed.
Due to the importance of mitochondria and reactive oxygen species (ROS) levels in the fate of cardiomyocyte cells, the hypothesis that the compounds could impact the mitochondrial network was explored. Following treatment of the RNVCs with the compounds tested, the mitochondrial network was stained with 200 nM of Mitotracker and the cell volume with 4 μM of calcein-AM. Thus, the mitochondrial network and the individual mitochondria were then analyzed using the IMARIS software.

| Structure (SMILES) | effect on A549 cell growth [1] | ATP production by oxidative phosphorylation (OXPHOS) (H9C2 cells; glucose and pyruvate as substrates, 6 h) | number of mitochondria (RNVCs) | total mitochondrial volume per cell (RNVCs) | OXPHOS (H9C2 cells; independently of the substrates) |
| --- | --- | --- | --- | --- | --- |
| C[C@]12CC[C@H](O)C[C@H]1CC[C@@H]1[C@@H]2CC[C@]2(C)[C@@H](C3=CC(=O)OC3)CC[C@]12O [digitoxigenin] | significantly reduced cell growth and induced cell death | improved ATP production by oxidative phosphorylation | increased | increased | – |
| C[C@H]1O[C@@H](O[C@H]2[C@@H](O)C[C@H](O[C@H]3[C@@H](O)CC(O[C@H]4CC[C@@]5(C)[C@H](CC[C@@H]6[C@@H]5C[C@@H](O)[C@]5(C)[C@@H](C7=CC(=O)OC7)CC[C@]65O)C4)O[C@@H]3C)O[C@@H]2C)C[C@H](O)[C@@H]1O (some centres unmarked) [digoxin] | significantly reduced cell growth and induced cell death | – | increased | increased | – |
| O=C1NC(c2ccccc2)=N/C1=C\c1cc2ccccc2c2ccccc12 [SG6163F] | no proliferative effect | – | increased | increased | boost OXPHOS |

From patent US20240226066A1, “CARDIOPROTECTION BY AUTOPHAGY INDUCTION AND METABOLIC REPROGRAMMING” (UNIVERSITE PARIS-SACLAY, priority 2021, published 2024)
